# Test results published in patent publication US12129475B2, “Glycoalkaloid metabolism enyzymes (GAMES) and uses thereof” (priority 2017, dated 2024).
# Assays:
# potato GAME25 = experiment: In vitro assay of recombinant potato GAME25 (Sf9 microsomes, NAD+); format: biochemical, Solanum tuberosum; conditions: 100 μM substrate, NAD+ 150 μM, pH 7.4, 37° C., 4 hrs; LC-MS
# Protocol: (§1) For enzyme assay experiments, an additional MS-MS analysis with a collision energy ramp from 20 to 50 eV was performed to identify the structures of the enzymatic reaction products. The solanid-4-en-3-one product was identified based on the comparison of its retention time and MS-MS spectrum to those measured for its corresponding standard. Another three products (tomatid-4-en-3-one, solasod-4-en-3-one and diosgen-4-en-3-one) were putatively assigned as follows: first, elemental composition based on accurate masses and the isotopic pattern was calculated using the MassLynx software. Then the MS-MS fragmentation pattern was analyzed, and the fragments were assigned applying the fragmentation rules for steroid-based compounds.
# (§2) Each expression vector construct was co-transfected with the ProGreen GFP linearized baculovirus DNA (AB vector) to generate the recombinant viruses in Spodoptera frugiperda (Sf9) insect cells. Infection efficiency was monitored by fluorescence of recombinant GFP viruses infected cells. Sf9 cells were grown in ESF921, protein free culture medium (Expression Systems). Three days post-infection cells were collected and washed twice in PBS. Microsomal fractions were isolated by suspending the cell pellet in 20 mM potassium phosphate buffer pH 7.25, 20% (v/v) glycerol, 1 mM EDTA and 1 mM DTT. The resuspended cells were sonicated, and the cell debris was removed by centrifugation at 10,000×g for 15 min. The supernatant was further centrifuged at 100,000×g for 60 min. The pellet containing the microsomal fractions was homogenized in lysis buffer. GAME25 was expressed with a myc-tag at the C-terminus. The isolated microsomal fractions were analyzed by SDS-PAGE and immune-blot with c-myc antibodies (A2S Technologies Ltd.).
# (§3) The steroidal alkaloid aglycones dehydrotomatidine, solanidine and solasodine as well as their glycosylated forms (i.e. SGAs) α-tomatine, α-solanine, α-chaconine and α-solamargine were used as substrates for GAME25 enzyme assays. In vitro assays for the tomato and potato recombinant GAME25 enzymes were performed as follows: Briefly, microsomal fractions of Sf9 cells expressing tomato or potato GAME25 proteins (0.2 mg total protein was used per reaction) were separately incubated in sodium phosphate buffer (pH 7.4) with 100 μM of each individual substrate (details are mentioned above), DTT (5 mM) and NAD^+ (150 μM) at 37° C. for 4 hrs. The reactions were stopped by addition of 300 μl of 80% methanol and 0.1% formic acid, followed by brief vortex and sonication for 15 min. Finally, the extracts were centrifuged for 15 min at 14,000×g, filtered through 0.22 μm filters, and analyzed by LC-MS (see Plant extracts preparation and targeted profiling of steroidal metabolites section above). Sf9 cells (without the baculovirus vector) microsomes were used in control enzyme reactions.
# tomato GAME25 [1] = experiment: In vitro assay of recombinant tomato GAME25 (Sf9 microsomes, NAD+); format: biochemical, Solanum lycopersicum; conditions: 100 μM substrate, NAD+ 150 μM, pH 7.4, 37° C., 4 hrs; LC-MS
# Protocol: as §1, §2, §3
# SmGAME31 = experiment: Enzymatic activity assay of recombinant SmGAME31 (hydroxylation of SA/SGAs); format: biochemical, Solanum melongena; conditions: full reaction, 20 μM substrate, 30° C., 1 h
# Protocol: (§4) GAME31 was amplified from cDNA (SEQ ID NO: 17) and cloned into pET28 vector by restriction free (RF) cloning as described previously (Unger et al., 2010, J Struct Biol. 172:34-44).
# The resulting plasmids were verified by sequencing and transformed to E. coli BL21 DE3. For isolation of the GAME31-His tagged enzymes, fresh overnight cultures were diluted 1:100 in 1000 ml of LB medium (Formedium) with 50 μg/ml kanamycin and incubated at 37° C. and 250 rpm until an A600 nm of 0.5 was reached. Subsequently, for induction of expression of the recombinant proteins, IPTG was added to a final concentration of […] and the incubation was continued overnight at 16° C. and 250 rpm. Then cells were harvested by centrifugation at 10,000×g and bacteria were lysed by sonication in a buffer (pH 7.4) containing 0.02 M NaH2PO4 0.02 M, 0.5 M NaCl, and SIGMAFAST protease inhibitor tablets (Sigma-Aldrich) and benzonase nuclease (Sigma-Aldrich) according to manufacturer's instructions. […]
# All the SA/SGAs substrates were prepared at a concentration of 1 mg/ml, dissolved in methanol, except dehydrotomatine that was prepared in DMSO. […] After incubation at 30° C. for 1 h, the reaction was stopped by freezing in liquid nitrogen Finally, the reaction was mixed with 300 μL methanol, extracted and analyzed by UPLC-qTOF-MS as described above.
# SlGAME31 = experiment: Enzymatic activity assay of recombinant SlGAME31 (hydroxylation of SA/SGAs); format: biochemical, Solanum lycopersicum
# Protocol: as §4
# The resulting plasmids were verified by sequencing and transformed to E. coli BL21 DE3. For isolation of the GAME31-His tagged enzymes, fresh overnight cultures were diluted 1:100 in 1000 ml of LB medium (Formedium) with 50 μg/ml kanamycin and incubated at 37° C. and 250 rpm until an A600 nm of 0.5 was reached. Subsequently, for induction of expression of the recombinant proteins, IPTG was added to a final concentration of […] and the incubation was continued overnight at 16° C. and 250 rpm. Then cells were harvested by centrifugation at 10,000×g and bacteria were lysed by sonication in a buffer (pH 7.4) containing 0.02 M NaH2PO4 0.02 M, 0.5 M NaCl, and SIGMAFAST protease inhibitor tablets (Sigma-Aldrich) and benzonase nuclease (Sigma-Aldrich) according to manufacturer's instructions. Lysed cultures were centrifuged, and the soluble fraction was purified by nickel affinity chromatography which was operated with an AKTA liquid chromatography system (AKTA avant, GE Healthcare) according to the manufacturer's instructions. Proteins were stored at −80° C. until further analysis.
# All the SA/SGAs substrates were prepared at a concentration of 1 mg/ml, dissolved in methanol, except dehydrotomatine that was prepared in DMSO. The enzymatic activity was performed according to Kawai et al. (2014) Evolution and diversity of the 2-oxoglutarate-dependent dioxygenase superfamily in plants. Plant J. 78: 328-43. Briefly, the standard full reaction (100 μL) consisted of 10 mM L-ascorbic acid, 10 mM α-ketoglutaric acid, 500 μM FeSO4, 20 μM substrate, 50 mM potassium phosphate buffer (pH 7.5) and purified enzyme. All the components, except the enzyme, were pre-incubated for 10 min at 30° C., after which the reaction was started by addition of the enzyme. After incubation at 30° C. for 1 h, the reaction was stopped by freezing in liquid nitrogen Finally, the reaction was mixed with 300 μL methanol, extracted and analyzed by UPLC-qTOF-MS as described above.
# animals and humans = conditions: studies in animal models; cited from earlier work
# plant cells = conditions: cited from earlier work
# tomato GAME25 [2] = experiment: In vitro assay of purified recombinant tomato GAME25 expressed in E. coli; format: biochemical, Solanum lycopersicum; conditions: purified enzyme (5 μg), NAD+ cofactor
# Protocol: as §1
# GAME25 and GAME35 genes were cloned into pET28 vector separately and expressed in E. coli BL21 (DE3). Bacterial cells were grown in LB medium at 37° C. When cultures reached A600=0.6, protein expression was induced with 200 μM of isopropyl-1-thio-β-d-galactopyranoside (IPTG) at 15° C. for 24 h. Bacterial cells were lysed by sonication in 50 mM Tris-HCl pH 7.5, 500 mM NaCl, 1 mM PMSF and protease inhibitor cocktail (Calbiochem). An aliquot of whole cell extract was kept for further analysis. […] The whole cell extract and the eluted fractions were analyzed by SDS-PAGE staining with InstatBlue and by Western blot with HRP conjugated anti-His antibodies (Sigma). […]
# GAME35 = GAME35 enzyme assay; format: biochemical, tomato; conditions: 150 μM substrate, NADH or NADPH, 30° C., 3 hrs
# Protocol: GAME25 and GAME35 genes were cloned into pET28 vector separately and expressed in E. coli BL21 (DE3). Bacterial cells were grown in LB medium at 37° C. When cultures reached A600=0.6, protein expression was induced with 200 μM of isopropyl-1-thio-β-d-galactopyranoside (IPTG) at 15° C. for 24 h. Bacterial cells were lysed by sonication in 50 mM Tris-HCl pH 7.5, 500 mM NaCl, 1 mM PMSF and protease inhibitor cocktail (Calbiochem). An aliquot of whole cell extract was kept for further analysis. Soluble protein was purified using Ni-NTA agarose beads (Adar Biotech) and eluted with 500 mM imidazole in buffer containing 50 mM NaH2PO4 pH-7.5 and 300 mM NaCl. The whole cell extract and the eluted fractions were analyzed by SDS-PAGE staining with InstatBlue and by Western blot with HRP conjugated anti-His antibodies (Sigma).
# Purified GAME35 protein (5 μg) was incubated with solanid-4-en-3-one substrate (150 μM), DTT (1 mM), NADH or NADPH (500 μM) in sodium phosphate buffer (pH 7.4) at 30° C. for 3 hrs. The reactions were stopped by addition of 250 μl of 80% methanol and 0.1% formic acid, and followed by brief vortex and sonication for 15 min. Finally, the extracts were centrifuged for 10 min at 13,000×g and filtered through 0.22 μm filters, and analyzed by LC-MS, as described in the section above (plant extracts preparation and targeted profiling of steroidal metabolites). […]
# [3] = full reaction: ketoglutaric acid, ascorbic acid, FeSO4, 20 μM substrate, 30° C., 1 h
Molecule,activity with substrate / product formed (potato GAME25),activity with substrate / product formed (tomato GAME25 [1]),hydroxylation of substrate (SlGAME31; [3]),also measured
cholestenol,not reactive,not reactive,–,–
C[C@@H]1CC[C@@]2(NC1)O[C@H]1C[C@H]3[C@@H]4CC=C5C[C@@H](O[C@@H]6O[C@H](CO)[C@@H](O[C@@H]7O[C@@H](C)[C@H](O)[C@@H](O)[C@H]7O)[C@H](O)[C@H]6O[C@@H]6O[C@@H](C)[C@H](O)[C@@H](O)[C@H]6O)CC[C@]5(C)[C@H]4CC[C@]3(C)[C@H]1[C@@H]2C [α-solamargine],no activity,no activity,generating hydroxysolamargine,hydroxylation of substrate (SmGAME31): performed hydroxylation
C[C@H]1CC[C@]2(NC1)O[C@H]1C[C@H]3[C@@H]4CC[C@H]5C[C@@H](O[C@@H]6O[C@H](CO)[C@H](O[C@@H]7O[C@H](CO)[C@@H](O)[C@H](O[C@@H]8OC[C@@H](O)[C@H](O)[C@H]8O)[C@H]7O[C@@H]7O[C@H](CO)[C@@H](O)[C@H](O)[C@H]7O)[C@H](O)[C@H]6O)CC[C@]5(C)[C@H]4CC[C@]3(C)[C@H]1[C@@H]2C [α-tomatine],no activity,no activity,forming hydroxytomatine,"toxicity to animals and humans compared to SGAs possessing the C-5,6 double bond (e.g. α-chaconine and α-solanine) (animals and humans): much less toxic; hydroxylation of substrate (SlGAME31; absence of iron): minor amounts of hydroxytomatine were still generated; hydroxylation of substrate (SlGAME31; removal of either cofactor (ketoglutaric or ascorbic acid)): lack of activity"
C[C@@H]1CC[C@@]2(NC1)O[C@H]1C[C@H]3[C@@H]4CC=C5C[C@@H](O)CC[C@]5(C)[C@H]4CC[C@]3(C)[C@H]1[C@@H]2C [solasodine],solasod-4-en-3-one,solasod-4-en-3-one,–,–
C[C@H]1CC[C@]2(NC1)O[C@H]1C[C@H]3[C@@H]4CC=C5C[C@@H](O[C@@H]6O[C@H](CO)[C@H](O[C@@H]7O[C@H](CO)[C@@H](O)[C@H](O[C@@H]8OC[C@@H](O)[C@H](O)[C@H]8O)[C@H]7O[C@@H]7O[C@H](CO)[C@@H](O)[C@H](O)[C@H]7O)[C@H](O)[C@H]6O)CC[C@]5(C)[C@H]4CC[C@]3(C)[C@H]1[C@@H]2C [dehydrotomatine],no activity,no activity,did perform hydroxylation,–
C[C@H]1CC[C@]2(NC1)O[C@H]1C[C@H]3[C@@H]4CC=C5C[C@@H](O)CC[C@]5(C)[C@H]4CC[C@]3(C)[C@H]1[C@@H]2C [dehydrotomatidine],tomatid-4-en-3-one,tomatid-4-en-3-one,–,toxicity to plant cells (plant cells): highly toxic
C[C@@H]1CC[C@@]2(OC1)O[C@H]1C[C@H]3[C@@H]4CC=C5C[C@@H](O)CC[C@]5(C)[C@H]4CC[C@]3(C)[C@H]1[C@@H]2C [diosgenin],–,–,–,product formed from substrate (tomato GAME25 [2]): diosgen-4-en-3-one
CC(C)CCC[C@@H](C)[C@H]1CC[C@H]2[C@@H]3CC=C4C[C@@H](O)CC[C@]4(C)[C@H]3CC[C@]12C [cholesterol],not reactive,not reactive,–,–
C[C@H]1CC[C@@H]2[C@@H](C)[C@H]3[C@H](C[C@H]4[C@@H]5CC=C6C[C@@H](O)CC[C@]6(C)[C@H]5CC[C@]34C)N2C1 [solanidine],solanid-4-en-3-one,solanid-4-en-3-one,–,product formed from substrate (tomato GAME25 [2]): solanid-4-en-3-one
C[C@H]1CC[C@@H]2[C@@H](C)C3C(CC4C5CCC6=CC(=O)CCC6(C)C5CCC43C)N2C1 (stereo partly shown) [solanid-4-en-3-one],–,–,–,activity with substrate (GAME35): did not react
C[C@H]1CC[C@@H]2[C@@H](C)[C@H]3[C@H](C[C@H]4[C@@H]5CC=C6C[C@@H](O[C@@H]7O[C@H](CO)[C@H](O[C@@H]8O[C@@H](C)[C@H](O)[C@@H](O)[C@H]8O)[C@H](O)[C@@H]7O[C@@H]7O[C@@H](C)[C@@H](O)[C@@H](O)[C@H]7O)CC[C@]6(C)[C@H]5CC[C@]34C)N2C1 [α-chaconine],no activity,no activity,–,–
C[C@H]1CC[C@]2(NC1)O[C@H]1C[C@H]3[C@@H]4CC[C@H]5C[C@@H](O)CC[C@]5(C)[C@H]4CC[C@]3(C)[C@H]1[C@@H]2C [tomatidine],–,–,did not show activity,toxicity to plant cells (plant cells): highly toxic; hydroxylation of substrate (SmGAME31): did not hydroxylate
C[C@H]1CC[C@@H]2[C@@H](C)[C@H]3[C@H](C[C@H]4[C@@H]5CC=C6C[C@@H](O[C@@H]7O[C@H](CO)[C@H](O)[C@H](O[C@@H]8O[C@H](CO)[C@@H](O)[C@H](O)[C@H]8O)[C@H]7O[C@@H]7O[C@@H](C)[C@H](O)[C@@H](O)[C@H]7O)CC[C@]6(C)[C@H]5CC[C@]34C)N2C1 [α-solanine],no activity,no activity,–,–
